Read-outs that look alike come from different tables or passages of the source.
How the values were obtained:
[1] = Pharmacokinetic (PK) experiment in rats by gavage; assay type: in vivo; conditions: rat, plasma, po, male SD rats, 20 mg/kg; for AUC(0-t): read-out: AUC0-24
[2] = Caco-2 cell transmembrane transport experiment; conditions: human; for Papp B→A at 90 min, 10 μM: basolateral to apical; for efflux ratio at 90 min, 10 μM: Caco-2, pH 7.4
Text: (§3) In this experiment, a monolayer of Caco-2 cells was used to assess drug penetration. […] The apparent permeability coefficient from apical to basolateral (Papp A-B) and the basolateral to apical permeability coefficient (Papp B-A) of compounds represent the ability of the compound to be transported in both directions, respectively.
(§4) Apparent permeability coefficient (Papp)=(the volume of the receiver chamber/the filter surface area×culture time))×(the drug concentration of receiver chamber at the end of culture/(the drug concentration of donor chamber at the initial culture×dilution factor)
(§5) In this experiment, Millipore cell culture plates (PSHT 010 R5): membrane area=0.7 cm^2, recipient side volume=0.8 mL (A-to-B) or 0.4 mL (B-to-A), incubation time=90 minutes.

[3] = test system: Caco-2 cell; experiment: Caco-2 cell transmembrane transport experiment; conditions: 10 μM, pH 7.4, 37° C., 90 min
Text: as §3, §4, §5

[4] = test system: H358 xenograft tumor; experiment: H358 human non-small cell lung cancer subcutaneous mouse xenograft model, anticancer activity; assay type: in vivo, BALB/c nude mice; conditions: 100 mg/kg, po, qd, 26 days
Method: (§1) In this experiment, the anticancer activities of compounds 73-1 and 90-1 in the subcutaneous tumor model of H358 human non-small cell lung cancer xenograft mice, and the dose-response relationship of compound 73-1 in inhibiting the growth of H358 xenograft tumors were investigated. […] When H358 cells were cultured to a sufficient number, cells were collected. […] Vernier calipers were used to measure the size of the tumor. The formula for calculating the tumor volume is: tumor volume=(length×width^2)/2, and the formula for calculating the relative tumor proliferation rate T/C value is: T/C (%)=100×ΔT/ΔC (ΔT>0) or T/T (%)=100×ΔT/T0 (ΔT<0). ΔT is the difference of tumor volume in the treatment group, ΔC is the difference of tumor volume in the vehicle control group, and T0 is the tumor volume in the treatment group before administration.
The dosage of the all groups, except the vehicle control group, was 100 mg/kg, 10 mL/kg orally administered by gavage, once a day. […] All the groups were administered continuously for 26 days.

[5] = test system: mouse tumors; conditions: mouse experiments, alone or combined; cited from earlier work
[6] = test system: non-small cell lung cancer (NSCLC); conditions: cited from earlier work
[7] = test system: MIA Paca2 T2 xenograft tumor; experiment: MIA Paca2 T2 human pancreatic cancer xenograft mouse subcutaneous model; conditions: for effect on tumor (in words): 28 days oral, 73-1 50 mg/kg bid, AMG510 100 mg/kg qd
Method: MIAPaca2 cells were cultured to sufficient numbers in DMEM containing 10% fetal bovine serum and 2.5% horse serum, then harvested. 5 million cells suspended in 0.1 mL of serum-free medium and Matrigel (1:1, v/v) were injected subcutaneously into the right flank area of each mouse, carefully avoiding blood vessels and serially passaged 2 times in animals. The size of the tumor was measured using a vernier caliper, and the method for calculating the tumor volume and T/C value was the same as above. […] The compounds were respectively dissolved in 30% sulfobutyl-β-cyclodextrin (SBE-β-CD) and 1.5 equivalent of 1 M HCl (pH 4-5) at the corresponding concentrations. 10 mL/kg was orally administered continuously by gavage for 28 days.

[8] = test system: H358 (KRAS G12C); experiment: Tumor cell proliferation inhibition assay (CellTiter-Glo), H358; assay type: cell-based, Human; conditions: Homo sapiens, NCI-H358, 72 h, 10% fetal bovine serum
Outline: (§2)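 Growth was read as ATP by CellTiter-Glo luminescence, with inhibition normalised to DMSO (max) and medium-only (min) wells. IC50 came from sigmoidal dose-response fits.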

[9] = test system: H358 xenograft tumor; experiment: H358 xenograft model, dose-response of compound 73-1; assay type: in vivo, BALB/c nude mice; conditions: po, qd, 28 days
Method: as §1
In the dose-response study of compound 73-1 inhibiting the growth of H358 xenograft tumors, when the H358 tumor volume reached an average of about 183 mm^3, the animals were respectively divided into different treatment groups, including vehicle (30% sulfobutyl-β-Cyclodextrin) control group, compound 73-1 orally administered group with doses of 12.5 mg/kg, 25 mg/kg, 50 mg/kg, and 100 mg/kg (n=8/group), administered once every day. […] All the groups were administered continuously for 28 days with 10 mL/kg oral administration.

[10] = test system: H23 (KRAS G12C); experiment: Tumor cell proliferation inhibition assay (CellTiter-Glo), H23; assay type: cell-based, Human; conditions: Homo sapiens, 72 h, 10% fetal bovine serum
Method: The H358, H23 or MIA-Paca2 cells were digested, centrifuged and resuspended, and the cell density was measured with a Scepter automatic cell counter. Cells were diluted to a solution containing 44,000 cells per milliliter, then added to a 96-well culture plate at 90 μL per well. The 96-well plate was placed in a 5% CO2 incubator at 37° C., and after the cells were cultured for 24 hours, different concentrations of the compounds to be tested were added. Cells were incubated with compounds in the presence of 10% fetal bovine serum for 72 hours. The inhibition of cell growth was assessed by measuring ATP levels by using the CellTiter-Glo Luminescent Cell Viability Assay Kit (details in manufacturer's instructions). In brief, 30 μL of CellTiter-Glo reagent was added to each well and the plate was shaken for 10 minutes to induce cell lysis, then the fluorescent signal was detected and recorded with a Fluoroskan Ascent FL (Thermo). Maximum signal values were obtained from cells treated with DMSO for 72 hours. Minimum signal values were obtained with medium only (zero cell number). Inhibition rate %=(maximum signal value-compound signal value)/(maximum signal value-minimum signal value)×100%. Data were processed by using Graphpad prism5 software. IC50 values were calculated using a sigmoidal dose-response curve.

[11] = target: T1, KRAS-G12C/SOS1 (Homo sapiens, UniProt P01116, G12C); experiment: HTRF KRAS-G12C/SOS1 binding assay; conditions: 2 hours room temperature
T1 construct: purchased Cisbio #63ADK000CB16PEG
T1 sequence (P01116 1-188 isoform P01116-2 G12C): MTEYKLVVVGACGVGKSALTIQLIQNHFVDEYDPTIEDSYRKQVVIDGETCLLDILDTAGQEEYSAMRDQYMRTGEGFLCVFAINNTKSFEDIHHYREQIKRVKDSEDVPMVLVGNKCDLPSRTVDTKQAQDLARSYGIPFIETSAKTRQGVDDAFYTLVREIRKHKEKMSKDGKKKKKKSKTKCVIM
Method: 2) Diluted the compound to be tested with diluent into 10× stock solution, starting from a concentration of 10000 nM, diluting in 4-fold gradient and a total of 6 concentration gradients.
After incubated at room temperature for 15 minutes, added pre-mixed 5 uL of anti-Tag1-Tb^3+ and 5 uL of anti-Tag2-XL665. Sealed the plate and incubated at room temperature for 2 hours.
Data were processed by using Graphpad prism software.

[12] = test system: MIA-Paca2 (KRAS G12C); experiment: Tumor cell proliferation inhibition assay (CellTiter-Glo), MIA-Paca2; assay type: cell-based, Human; conditions: 10% fetal bovine serum
Outline: as §2

[13] = Caco-2, pH 7.4, Papp A-B Sample_01, 10 μM, pH 7.4, 37° C., 90 min, apical to basolateral
[14] = Caco-2, pH 7.4, Papp A-B Sample_02, 10 μM, pH 7.4, 37° C., 90 min, apical to basolateral
[15] = Caco-2, pH 7.4, Papp A-B mean value, 10 μM, pH 7.4, 37° C., 90 min, apical to basolateral
[16] = Caco-2, pH 7.4, Papp B-A Sample_01, 10 μM, pH 7.4, 37° C., 90 min
[17] = Caco-2, pH 7.4, Papp B-A Sample_02, 10 μM, pH 7.4, 37° C., 90 min
[18] = Caco-2, pH 7.4, Papp B-A mean value, 10 μM, pH 7.4, 37° C., 90 min
[19] = 13 evaluable patients, highest dose of 960 mg
[20] = Caco-2, pH 7.4, apparent permeability coefficient Papp A-B, Caco-2

In the case of `C=CC(=O)N1CCN(c2nc(=O)n(-c3c(C)ccnc3C(C)C)c3nc(-c4c(O)cccc4F)c(F)cc23)[C@@H](C)C1` (atropisomer, axis not shown) [AMG510, reference compound], the AUC(0-inf) [1] is reported as 3430 ng·h/mL, the Cmax [1] is reported as 3250 ng/mL and the Tmax [1] is reported as 0.33 h. For the same compound, the half-life [1] was 6.76 h, the AUC(0-t) [1] was 3370 ng·h/mL and the Papp A→B at 90 min, 10 μM [2, 13] was 5.83 ×10⁻⁶ cm/s. The Papp A→B at 90 min, 10 μM [2, 14] was 4.94 ×10⁻⁶ cm/s, the Papp A→B at 90 min, 10 μM [2, 15] was 5.39 ×10⁻⁶ cm/s and the Papp B→A at 90 min, 10 μM [2, 16] was 27.9 ×10⁻⁶ cm/s. For the same compound, the Papp B→A at 90 min, 10 μM [2, 17] was 39.1 ×10⁻⁶ cm/s, the Papp B→A at 90 min, 10 μM [2, 18] was 33.5 ×10⁻⁶ cm/s and the “efflux rate Papp(B-A)/Papp(A-B)” value [3] was 6.22. For the same compound, the “Changes of body weight (%)” value [4] was 16.4%, the “effect on tumor (in words)” value [4] was “shrink the tumor” and the “tumor suppressor T/C value (%)” value [4] was −93.8%. For the same compound, the “mice whose tumor completely disappeared” value [5] was 10%, the DCR [6, 19] was 100% and the ORR [6, 19] was 54%. For the same compound, the “partial response (PR)” value [6, 19] was 54%, the “disease control rate (DCR)” value ([6]; 23 evaluable NSCLC patients) was 96% and the “objective response rate (ORR)” value ([6]; 23 evaluable NSCLC patients) was 48%. For the same compound, the “partial response (PR)” value ([6]; 23 evaluable NSCLC patients) was 48%, the “progressive disease (PD)” value ([6]; 23 evaluable NSCLC patients) was 4% and the “dose-limiting toxicity and adverse reactions above grade IV” value ([6]; phase I patients) was “No dose-limiting toxicity (DLT) and drug-related adverse reactions above grade IV were found”. The “tolerability (in words)” value ([6]; phase I patients) was “well tolerated”, the “Changes of body weight (%)” value ([7]; 100 mg/kg, po, qd, 28 days) was 13.8% and the “effect on tumor (in words)” value [7] was “shrink the tumor”.

For `C=CC(=O)N1CCN(c2nc(=O)n(-c3c(C)ccnc3C(C)C)c3nc(-c4c(F)ccc5ccoc45)c(Cl)cc23)[C@@H](C)C1` (single isomer, unassigned) [Compound 73-1], the IC50 [8] was less than 10 nM, the AUC(0-inf) [1] was 4320 ng·h/mL and the Cmax [1] was 1750 ng/mL. For the same compound, the Tmax [1] was 0.67 h, the half-life [1] was 3.23 h and the AUC(0-t) [1] was 4300 ng·h/mL. The “Antitumor activity T/C value (%)” value ([9]; 12.5 mg/kg) was −68.5%, the “Changes of body weight (%)” value ([9]; 12.5 mg/kg) was −0.2% and the “Antitumor activity T/C value (%)” value ([9]; 25 mg/kg) was −74.0%. The “Changes of body weight (%)” value ([9]; 25 mg/kg) was −0.1%, the “Antitumor activity T/C value (%)” value ([9]; 50 mg/kg) was −93.5% and the “Changes of body weight (%)” value ([9]; 50 mg/kg) was 2.2%. The “Antitumor activity T/C value (%)” value ([9]; 100 mg/kg) was −96.6%, the “Changes of body weight (%)” value ([9]; 100 mg/kg) was 1.9% and the “clinical symptoms and body weight (in words)” value ([9]; 12.5, 25, 50 and 100 mg/kg, versus vehicle control) was “no significant clinical symptoms and no significant changes in body weight”. The “effect on tumor growth (in words)” value ([9]; 12.5-100 mg/kg) was “inhibited the growth of H358 tumor in a dose-dependent manner and could cause partial disappearance of tumor”, the “tolerability (in words)” value ([9]; 12.5-100 mg/kg) was “well tolerated” and the IC50 [10] was less than 10 nM. The efflux ratio at 90 min, 10 μM [2] was 1.12, the Papp A→B at 90 min, 10 μM [2, 13] was 16 ×10⁻⁶ cm/s and the Papp A→B at 90 min, 10 μM [2, 14] was 20.8 ×10⁻⁶ cm/s. The Papp A→B at 90 min, 10 μM [2, 15] was 18.4 ×10⁻⁶ cm/s, the Papp B→A at 90 min, 10 μM [2, 16] was 17.2 ×10⁻⁶ cm/s and the Papp B→A at 90 min, 10 μM [2, 17] was 24 ×10⁻⁶ cm/s. The Papp B→A at 90 min, 10 μM [2, 18] was 20.6 ×10⁻⁶ cm/s, the Papp A→B at 90 min, 10 μM [2, 20] was greater than 10 ×10⁻⁶ cm/s and the “Changes of body weight (%)” value [4] was 10.1%. For the same compound, the “effect on tumor (in words)” value [4] was “cause the tumor to disappear completely”, the “tumor suppressor T/C value (%)” value [4] was −100.0% and the IC50 [11] was less than 50 nM. For the same compound, the “Antitumor activity T/C value (%)” value ([7]; 50 mg/kg, po, bid, 28 days) was −100%, the “Changes of body weight (%)” value ([7]; 50 mg/kg, po, bid, 28 days) was 10.2% and the “effect on tumor (in words)” value [7] was “cause the tumor to disappear completely”. The IC50 ([12]; 72 hours) was less than 10 nM.

In the case of `C=CC(=O)N1C[C@H](C)N(c2nc(=O)n(-c3c(C)ccnc3C(C)C)c3nc(-c4c(F)ccc5ccoc45)c(Cl)cc23)C[C@H]1C` (single isomer, unassigned) [Compound 90-1], the IC50 [8] is reported as less than 10 nM, the AUC(0-inf) [1] is reported as 13800 ng·h/mL and the Cmax [1] is reported as 3720 ng/mL. For the same compound, the Tmax [1] was 1.33 h, the half-life [1] was 3.26 h and the AUC(0-t) [1] was 13800 ng·h/mL. The melting point was 175 to 177 °C, the IC50 [10] was less than 10 nM and the efflux ratio at 90 min, 10 μM [2] was 1.08. For the same compound, the Papp A→B at 90 min, 10 μM [2, 13] was 20.1 ×10⁻⁶ cm/s, the Papp A→B at 90 min, 10 μM [2, 14] was 20.4 ×10⁻⁶ cm/s and the Papp A→B at 90 min, 10 μM [2, 15] was 20.2 ×10⁻⁶ cm/s. It also gave a Papp B→A at 90 min, 10 μM [2, 16] of 18.6 ×10⁻⁶ cm/s, a Papp B→A at 90 min, 10 μM [2, 17] of 25.2 ×10⁻⁶ cm/s and a Papp B→A at 90 min, 10 μM [2, 18] of 21.9 ×10⁻⁶ cm/s. The Papp A→B at 90 min, 10 μM [2, 20] was greater than 10 ×10⁻⁶ cm/s, the “Changes of body weight (%)” value [4] was 23.3% and the “tumor suppressor T/C value (%)” value [4] was −99.5%. For the same compound, the IC50 [11] was less than 50 nM and the IC50 ([12]; Homo sapiens, MIA PaCa-2, 72 h) was less than 10 nM.

In the case of pembrolizumab: PD-1 antibody, the “mice whose tumor completely disappeared” value [5] is listed as 10%.
